“Also recorded” adds a separate entry of the source. Like-named read-outs stand apart in the source and are kept apart here.
Key:
[1] = target: recombinant DENV2 NS2BNS3 protease (Dengue virus type 2, UniProt P29990); test: DENV2 NS2BNS3 protease inhibition assay (fluorogenic Bz-Nle-Lys-Arg-Arg-AMC substrate); assay type: biochemical; conditions: for inhibition at 50 µM: single dose 50 μM BIT, 100 nM protease
Experimental: The DENV NS2BNS3 activity inhibition assays were conducted in a 96-well plate containing 100 μL total reaction mixture. […] The reaction, in triplicates, was initiated by the addition of 100 nM DENV2 NS2B-NS3, and the release of fluorogenic AMC was measured at 60 s intervals using a spectrofluorometer for a maximum reaction time of 30 min. A solvent (DMSO) control was run for each assay plate by measuring the activity of DENV NS2BNS3 in the absence of BITs (DMSO control). The effect of background fluorescence was measured by preparing a calibration curve, which in turn was obtained by spiking known concentrations of free AMC in the same volume of the reaction mixtures containing the buffer, enzyme and compounds, and comparing the slope of this curve with that obtained using free AMC concentrations in reaction mixtures containing the buffer, enzyme, no compound and no substrate. The percentage of inhibition was calculated using the measurement of the initial rates of reaction in the presence (vexp) , or absence (vpro) of BIT according to the following formula: Inhibition (%)= 100−(vexp/vpro×100).
For the dose–response experiments, the assays were conducted as described above in the presence of threefold serial dilutions of BITs, ranging from 0.076–500 μM concentrations in DMSO. The final concentration of DMSO in each reaction mixture was less than 5%. IC50 values were obtained by plotting the residual activity of the DENV protease vs. log of the concentration of BITs by using GraphPad Prism v.7 software (San Diego, CA USA). For the positive control, aprotinin was used in a 5 μM concentration. All experiments were conducted in triplicates.
The synthesised BITs were tested for their inhibitory activity against the DENV2 NS2B/NS3 protease assay using the previously reported 96-well plate method. […] A reduction in the cleavage of the […] (AMC) measured in terms of the reduction of fluorescence was deemed to show inhibition of the protease and is reported as a percentage inhibition compared with the solvents’ control reaction. […] Aprotinine was used as the positive control, as described previously.
A threefold serial dilution of the selected BITs, ranging from 150 μM to about 200 nM, were screened in triplicate experiments, as described above. The kinetic data were obtained and the protease’s residual activities in the presence of the tested BITs were inserted into the dose–response model rooted in the GraphPad Prism software (version 7.0).
Figure 3 Inhibition and dose–response of DENV NS2BNS3 protease against the BITs. (A) A concentration of 50 μM BITs was incubated in the presence of 100 nM recombinant DENV2 NS2BNS3 protease and 5 µM tetrapeptide-AMC substrate in a Tris buffer at pH 9.5. The time-dependent release of fluorescent AMC tag was measured for 30 min and compared with the solvent control (−). […] Aprotinine (5 µM) was used as a positive control. Each bar represents a mean value of three replicates. […] The dashed horizontal line indicates the 50% activity level.

[2] = tested on: DENV2; test: DENV replication assay, viral RNA in supernatant by RT-qPCR; assay type: cell-based, DENV2 in Vero cells; conditions: 30 μM, Vero cells pre-incubated 1 h, supernatant after two days
Experimental: Based on the manufacturer’s manual, viral RNA was isolated from 200 µL cell culture supernatants using the Roche HP Viral Nucleic Acid Kit (Roche, Mannheim, Germany). Relative viral genome copy numbers were determined using 5 µL of the eluted RNA and RT-qPCR using the LightMix® Modular Dengue kit (TIB MOLBIOL, Germany) in combination with the LightCycler RNA Process Control Kit (Roche, Mannheim, Germany). All reactions were performed in triplicates on Roche LightCycler96 or Roche LightCycler480 II qPCR machines (Roche, Mannheim, Germany). The relative RNA concentration was determined using an RNA standard curve and the respective cycler software. The quality of the RT-qPCRs was ensured by following the Minimum Information for Publication of Quantitative […] Experiments guidelines, i.e., the recursion coefficient of the relative standard curve (r^2) was >0.95, and the triplicate assays with a standard deviation of >0.5 were excluded from the analyses. The resulting genome copy numbers were expressed as genome copies per millilitre of the cell culture supernatants. The statistical significance of the reduction in viral titres was calculated using Student’s t-test by comparing the viral load of a single compound with the DMSO control.
The BITs were tested for cytotoxicity in the Vero cells before their evaluation in cell culture assays (Figure S1). […] The BITs showing weaker DENV2 NS2BNS3 protease activity in the biochemical assay were excluded in the in vitro evaluations. […] All infections were performed in triplicate. After two days, the cellular supernatants were collected and the viral RNAs were isolated and quantified using real-time quantitative polymerase chain reaction (RT-qPCR).
(§1) (A) Vero cells were infected with DENV2 and incubated in the presence of the compounds. After incubation, viral RNA was isolated and quantified using RT-qPCR. (B) Viral infectivity of the compounds 5m and 5n was determined using immunofluorescence (IF) staining.

[3] = tested on: DENV2; test: Viral infectivity by immunofluorescence staining of Vero cells infected with supernatants; assay type: cell-based, DENV2 in Vero cells
Experimental: The inhibition of viral replication was analysed using immunofluorescence staining. Vero cells were preincubated with selected BITs at 30 μM. The cells were subsequently infected with DENV-2 (multiplicity of infection (MOI) of 0.5). Cellular supernatants were collected after 2 days, centrifuged at 2000 rpm for 5 min to remove the detached cells, and titrated on Vero cells. These cells were fixed with 4% paraformaldehyde 3 days after infection. We performed immunofluorescence staining to visualise the infected cells with monoclonal anti-DENV-2 E antibodies. Bound antibodies were detected with a Cy3-conjugated donkey anti-mouse antibody (Dianova, Hamburg, Germany) (1:500). Stained infected cells were counted using a fluorescence microscope, and the viral titres were calculated. The experiment was performed in triplicates. The statistical significance of the reduction of infected cells was calculated using Student’s t-test by comparing numbers of infected cells incubated with a compound with the DMSO control.
To further analyse whether the compounds 5m and 5n suppressed the viral gene infectivity, Vero cells were pretreated with the compounds and subsequently infected with DENV2 for two days. Cellular supernatants were uses to infect the Vero cells. After two additional days, the infected cells were visualised using immunofluorescence with anti-DENV antibodies. The stained cells were counted (Figure 5).
as §1

[4] = Vero cells pretreated, DENV2, immunofluorescence

recombinant DENV2 NS2BNS3 protease, sequence (P29990 1398-1437): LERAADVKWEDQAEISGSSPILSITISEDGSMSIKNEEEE
recombinant DENV2 NS2BNS3 protease, sequence (P29990 1476-1653): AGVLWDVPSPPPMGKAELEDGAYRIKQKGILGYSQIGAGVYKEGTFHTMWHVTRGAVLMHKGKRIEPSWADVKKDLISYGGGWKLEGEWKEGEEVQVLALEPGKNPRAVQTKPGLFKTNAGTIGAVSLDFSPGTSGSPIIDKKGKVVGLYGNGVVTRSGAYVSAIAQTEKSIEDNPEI

Compound | melting point [°C] | IC50 [1] [µM] | inhibition at 50 µM [1] [%] | suppression of DENV replication (viral RNA, RT-qPCR) [2] | further results
CCCCc1ccc(-n2sc3ccccc3c2=O)cc1 [Compound 5g, 2-(4-Butylphenyl)benzo[d]isothiazol-3(2H)-one] | 168 to 172 | – | – | – | –
O=c1c2ccccc2sn1-c1ccccc1[N+](=O)[O-] [Compound 5h, 2-(2-Nitrophenyl)benzo[d]isothiazol-3(2H)-one] | 199 to 200 | 41.8 ± 1.17 | ~70 | – | –
O=c1c2ccccc2sn1-c1ccc([N+](=O)[O-])cc1 [Compound 5i, 2-(4-Nitrophenyl)benzo[d]isothiazol-3(2H)-one] | 126 to 129 | – | – | – | –
Cc1cc([N+](=O)[O-])ccc1-n1sc2ccccc2c1=O [Compound 5j, 2-(2-Methyl-4-nitrophenyl)benzo[d]isothiazol-3(2H)-one] | 135 to 138 | 2.56 ± 1.03 | > 90 | did not show any activity against DENV2 | –
O=c1c2ccccc2sn1-c1ccc(Br)cc1 [Compound 5k, 2-(4-Bromophenyl)benzo[d]isothiazol-3(2H)] | 138 to 140 | 8.24 ± 1.16 | 80 | – | –
O=c1c2ccccc2sn1-c1ccccc1O [Compound 5l, 2-(2-Hydroxyphenyl)benzo[d]isothiazol-3(2H)-one] | 198 to 200 | 6.66 ± 2.17 | ≥ 90 | – | –
O=c1c2ccccc2sn1-c1ccccc1Cl [Compound 5m, 2-(2-Chlorophenyl)benzo[d]isothiazol-3(2H)-one] | – | 2.01 ± 0.98 | > 90 | able to suppress DENV replication at a significant level; also recorded: inhibited DENV replication | reduction of viral infectivity [3]: 1 log value; reduction of viral infectivity [3, 4]: 1.4 orders of magnitude; reduction of viral infectivity (in words) [3, 4]: inhibited DENV replication and viral infectivity; reduction of viral infectivity (in words) ([3]; Vero cells pretreated, DENV2, immunofluorescence, listed as 2-(2-chlorophenyl)benzo[d]isothiazol-3(2H)-one): could suppress DENV replication and virus infectivity; suppression of DENV replication (viral RNA, RT-qPCR) ([2]; listed as 2-(2-chlorophenyl)benzo[d]isothiazol-3(2H)-one): could suppress DENV replication
O=c1c2ccccc2sn1-c1c(Cl)cccc1Cl [Compound 5n, 2-(2,6-Dichlorophenyl)benzo[d]isothiazol-3(2H)-one] | 188 to 190 | 5.28 ± 1.89 | > 90 | able to suppress DENV replication at a significant level | reduction of viral infectivity (in words) [3, 4]: about sixfold; reduction of viral infectivity (in words) ([3]; Vero cells pretreated, DENV2, immunofluorescence, listed as 2-(2,6-dichlorophenyl)benzo[d]isothiazol-3(2H)-one): could suppress DENV replication and virus infectivity; suppression of DENV replication (viral RNA, RT-qPCR) ([2]; listed as 2-(2,6-dichlorophenyl)benzo[d]isothiazol-3(2H)-one): could suppress DENV replication
COc1ccc(-n2sc3ccccc3c2=O)cc1 [Compound 5o, 2-(4-Methoxyphenyl)benzo[d]isothiazol-3(2H)-one] | – | 26.5 ± 4.32 | 58 | – | –

Source: publication PMC8070447, “Facile Synthesis and In Vitro Activity of N-Substituted 1,2-Benzisothiazol-3(2H)-ones against Dengue Virus NS2BNS3 Protease” (Pathogens, 2021)
